Reference: patent publication US7622128B2, “Porphyromonas gingivalis 1435/1449 LPS as an immune modulator” (priority 2005, dated 2009)

Tested on: mouse bone marrow cells
Assay: Activation of bone marrow cells from TLR knockout mice (intracellular TNF-α staining, FACS)
Type: cell-based
Conditions: TLR2−/−, TLR4−/− and TLR2/4−/− cells
Experimental: The ability of this P. gingivalis LPS preparation to activate mouse bone marrow cells obtained from TLR2^−/−, TLR4^−/−, and TLR2/4^−/− knockout mice was examined to determine if endogenous TLR2 and TLR4 were utilized. Activation was determined by intracellular TNF-α staining and fluorescence-activated cell sorter analysis.

Pam3CSK4
TLR usage in bone marrow cells of knockout mice: utilized their respective cognate TLR
